Experimental data reported in US4012576A, “Antibiotic complex Bu 2183” (priority 1975, dated 1977).
In brackets after ≈: the same amount, converted by molar mass. Read-outs that look alike come from different tables or passages of the source.

What was measured:
Ser. marcescens A21247 = assay: MIC, two-fold agar dilution on Nutrient Agar; format: cell-based; details: Serratia marcescens, read-out: MIC
Description: (§1) The minimum inhibitory concentrations (MIC) of Bu-2183 A and B were determined against a wide variety of bacteria by the two-fold agar dilution method on Nutrient Agar plates. The inocula-replicating device of Steers et al. was used. Inoculum size was adjusted to be 10^4 dilution of overnight culture of the test organisms in Heart Infusion Broth (Difco). The results are shown in Table 6 along with those of kanamycin which was comparatively tested as a reference antibiotic.

Prov. stuartii A20894 = assay: MIC, two-fold agar dilution on Nutrient Agar; format: cell-based
Description: as §1

S. aureus Smith = assay: MIC, two-fold agar dilution on Nutrient Agar; format: cell-based; details: Staphylococcus aureus, read-out: MIC
Description: as §1

K. pneumoniae D11 = assay: MIC, two-fold agar dilution on Nutrient Agar; format: cell-based; details: Klebsiella pneumoniae, read-out: MIC
Description: as §1

Ps. aeruginosa A20653 = assay: MIC, two-fold agar dilution on Nutrient Agar; format: cell-based; details: Pseudomonas aeruginosa, read-out: MIC
Description: as §1

E. coli R 5 = assay: MIC, two-fold agar dilution on Nutrient Agar; format: cell-based; details: Escherichia coli
Description: as §1

E. coli PO 1495 = assay: MIC, two-fold agar dilution on Nutrient Agar; format: cell-based
Description: as §1

E. coli A20895 = assay: MIC, two-fold agar dilution on Nutrient Agar; format: cell-based; details: Escherichia coli, read-out: MIC
Description: as §1

S. aureus D133 = assay: MIC, two-fold agar dilution on Nutrient Agar; format: cell-based; details: Staphylococcus aureus, read-out: MIC
Description: as §1

Ps. aeruginosa A20896 = assay: MIC, two-fold agar dilution on Nutrient Agar; format: cell-based; details: Pseudomonas aeruginosa, read-out: MIC
Description: as §1

Ser. marcescens A20019 = assay: MIC, two-fold agar dilution on Nutrient Agar; format: cell-based
Description: as §1

S. aureus A20239 = assay: MIC, two-fold agar dilution on Nutrient Agar; format: cell-based; details: Staphylococcus aureus, read-out: MIC
Description: as §1

E. coli JR 35/C600 = assay: MIC, two-fold agar dilution on Nutrient Agar; format: cell-based
Description: as §1

E. coli A20732 = assay: MIC, two-fold agar dilution on Nutrient Agar; format: cell-based
Description: as §1

Ps. aeruginosa GN 315 = assay: MIC, two-fold agar dilution on Nutrient Agar; format: cell-based
Description: as §1

Pseudomonas sp. A20621 = assay: MIC, two-fold agar dilution on Nutrient Agar; format: cell-based
Description: as §1

Pr. mirabilis A9554 = assay: MIC, two-fold agar dilution on Nutrient Agar; format: cell-based; details: Proteus mirabilis, read-out: MIC
Description: as §1

Ps. aeruginosa A9930 = assay: MIC, two-fold agar dilution on Nutrient Agar; format: cell-based
Description: as §1

S. aureus D193 = assay: MIC, two-fold agar dilution on Nutrient Agar; format: cell-based
Description: as §1

E. coli JR 66/W677 = assay: MIC, two-fold agar dilution on Nutrient Agar; format: cell-based; details: Escherichia coli
Description: as §1

Ent. cloacae A21006 = assay: MIC, two-fold agar dilution on Nutrient Agar; format: cell-based
Description: as §1

[1] = test system: K. pneumoniae Type 22-3038; assay: MIC, two-fold agar dilution on Nutrient Agar; format: cell-based
Description: as §1

E. coli A20107 = assay: MIC, two-fold agar dilution on Nutrient Agar; format: cell-based; details: Escherichia coli, read-out: MIC
Description: as §1

Pr. vulgaris A9436 = assay: MIC, two-fold agar dilution on Nutrient Agar; format: cell-based; details: Proteus vulgaris, read-out: MIC
Description: as §1

E. coli NIHJ = assay: MIC, two-fold agar dilution on Nutrient Agar; format: cell-based; details: Escherichia coli, read-out: MIC
Description: as §1

Ps. aeruginosa No. 130 = assay: MIC, two-fold agar dilution on Nutrient Agar; format: cell-based
Description: as §1

S. aureus D137 = assay: MIC, two-fold agar dilution on Nutrient Agar; format: cell-based; details: Staphylococcus aureus, read-out: MIC
Description: as §1

E. coli NR 79/W677 = assay: MIC, two-fold agar dilution on Nutrient Agar; format: cell-based; details: Escherichia coli
Description: as §1

Titration in water = format: physicochemical
in vivo = details: mouse, in vivo
Description: The acute toxicity of Bu-2183 A and B was determined in mice by the subcutaneous and intravenous routes.

## CCC(=O)NC1C(CO)OC(OC(C(O)CN)C(N)C(O)CO)C(O)C1O (stereo not drawn) [Bu-2183 A]
Ser. marcescens A21247; A21247, Table 6, Sm-16
  MIC: 100 µg/mL (≈ 252 µM)
Ser. marcescens A21247; A21247, Table 7, Sm-16
  MIC: > 100 µg/mL
Prov. stuartii A20894; Providencia stuartii, A20894, Table 6, Ps-2, read-out: MIC
  MIC: > 100 µg/mL
Prov. stuartii A20894; Table 7, Ps-2
  MIC: > 100 µg/mL
S. aureus Smith; Table 6, Sa-2
  MIC: 12.5 µg/mL (≈ 31.5 µM)
S. aureus Smith; Table 7, Sa-2
  MIC: 25 µg/mL (≈ 62.9 µM)
K. pneumoniae D11; D11, Table 6, Kp-1
  MIC: 3.1 µg/mL (≈ 7.8 µM)
K. pneumoniae D11; D11, Table 7, Kp-1
  MIC: 6.3 µg/mL (≈ 15.9 µM)
Ps. aeruginosa A20653; A20653, Table 6, Pa-12
  MIC: 25 µg/mL (≈ 62.9 µM)
Ps. aeruginosa A20653; A20653, Table 7, Pa-12
  MIC: 50 µg/mL (≈ 126 µM)
E. coli R 5; R5, Table 6, Ec-55
  MIC: 25 µg/mL (≈ 62.9 µM)
E. coli R 5; R5, Table 7, Ec-55
  MIC: 6.3 µg/mL (≈ 15.9 µM)
E. coli PO 1495; Escherichia coli, PO1495, Table 6, Ec-2, read-out: MIC
  MIC: 25 µg/mL (≈ 62.9 µM)
E. coli PO 1495; Table 7, Ec-2
  MIC: 25 µg/mL (≈ 62.9 µM)
E. coli A20895; A20895, Table 6, Ec-62
  MIC: 12.5 µg/mL (≈ 31.5 µM)
E. coli A20895; A20895, Table 7, Ec-62
  MIC: 25 µg/mL (≈ 62.9 µM)
S. aureus D133; D133, Table 6, Sa-4
  MIC: 25 µg/mL (≈ 62.9 µM)
S. aureus D133; D133, Table 7, Sa-4
  MIC: 50 µg/mL (≈ 126 µM)
Ps. aeruginosa A20896; A20896, Table 6, Pa-24
  MIC: 25 µg/mL (≈ 62.9 µM)
Ps. aeruginosa A20896; A20896, Table 7, Pa-24
  MIC: 50 µg/mL (≈ 126 µM)
Ser. marcescens A20019; Serratia marcescens, A20019, Table 6, Sm-1, read-out: MIC
  MIC: > 100 µg/mL
Ser. marcescens A20019; Table 7, Sm-1
  MIC: > 100 µg/mL
S. aureus A20239; A20239, Table 6, Sa-10
  MIC: 25 µg/mL (≈ 62.9 µM)
S. aureus A20239; A20239, Table 7, Sa-10
  MIC: 50 µg/mL (≈ 126 µM)
E. coli JR 35/C600; Escherichia coli, JR35/C600
  MIC: 6.3 µg/mL (≈ 15.9 µM)
E. coli JR 35/C600; Table 7, Ec-10
  MIC: 6.3 µg/mL (≈ 15.9 µM)
E. coli A20732; Escherichia coli, A20732, Table 6, Ec-72, read-out: MIC
  MIC: 12.5 µg/mL (≈ 31.5 µM)
E. coli A20732; Table 7, Ec-72
  MIC: 12.5 µg/mL (≈ 31.5 µM)
Ps. aeruginosa GN 315; Pseudomonas aeruginosa, GN315, Table 6, Pa-27, read-out: MIC
  MIC: 25 µg/mL (≈ 62.9 µM)
Ps. aeruginosa GN 315; Table 7, Pa-27
  MIC: 25 µg/mL (≈ 62.9 µM)
Pseudomonas sp. A20621; Pseudomonas, SP.A20621, Table 6, Px-10, read-out: MIC
  MIC: > 100 µg/mL
Pseudomonas sp. A20621; Table 7, Px-10
  MIC: > 100 µg/mL
Pr. mirabilis A9554; A9554, Table 6, Pm-1
  MIC: 12.5 µg/mL (≈ 31.5 µM)
Pr. mirabilis A9554; A9554, Table 7, Pm-1
  MIC: 25 µg/mL (≈ 62.9 µM)
Ps. aeruginosa A9930; Pseudomonas aeruginosa, A9930, Table 6, Pa-3, read-out: MIC
  MIC: 12.5 µg/mL (≈ 31.5 µM)
Ps. aeruginosa A9930; Table 7, Pa-3
  MIC: 12.5 µg/mL (≈ 31.5 µM)
S. aureus D193; Staphylococcus aureus, D193, Table 6, Sa-3, read-out: MIC
  MIC: 25 µg/mL (≈ 62.9 µM)
S. aureus D193; Table 7, Sa-3
  MIC: 25 µg/mL (≈ 62.9 µM)
E. coli JR 66/W677; JR66/W677, Table 6, Ec-53
  MIC: 6.3 µg/mL (≈ 15.9 µM)
E. coli JR 66/W677; JR66/W677, Table 7, Ec-53
  MIC: 25 µg/mL (≈ 62.9 µM)
Ent. cloacae A21006; Enterobacter cloacae, A21006, Table 6, El-12, read-out: MIC
  MIC: 25 µg/mL (≈ 62.9 µM)
Ent. cloacae A21006; Table 7, El-12
  MIC: 25 µg/mL (≈ 62.9 µM)
[1]; Klebsiella pneumoniae, TYPE223038, Table 6, Kp-8, read-out: MIC
  MIC: 25 µg/mL (≈ 62.9 µM)
[1]; Table 7, Kp-8 (printed Type 22-3028)
  MIC: 25 µg/mL (≈ 62.9 µM)
E. coli A20107; A20107, Table 6, Ec-49
  MIC: 12.5 µg/mL (≈ 31.5 µM)
E. coli A20107; A20107, Table 7, Ec-49
  MIC: 25 µg/mL (≈ 62.9 µM)
Pr. vulgaris A9436; A9436, Table 6, Pv-1
  MIC: 12.5 µg/mL (≈ 31.5 µM)
Pr. vulgaris A9436; A9436, Table 7, Pv-1
  MIC: 25 µg/mL (≈ 62.9 µM)
E. coli NIHJ; Table 6, Ec-1
  MIC: 12.5 µg/mL (≈ 31.5 µM)
E. coli NIHJ; Table 7, Ec-1
  MIC: 25 µg/mL (≈ 62.9 µM)
Ps. aeruginosa No. 130; Pseudomonas aeruginosa, NO.130, Table 6, Pa-16, read-out: MIC
  MIC: 25 µg/mL (≈ 62.9 µM)
Ps. aeruginosa No. 130; Table 7, Pa-16
  MIC: 25 µg/mL (≈ 62.9 µM)
S. aureus D137; D137, Table 6, Sa-9
  MIC: 100 µg/mL (≈ 252 µM)
S. aureus D137; D137, Table 7, Sa-9
  MIC: 50 µg/mL (≈ 126 µM)
E. coli NR 79/W677; NR79/W677, Table 6, Ec-9
  MIC: 25 µg/mL (≈ 62.9 µM)
E. coli NR 79/W677; NR79/W677, Table 7, Ec-9
  MIC: 12.5 µg/mL (≈ 31.5 µM)
Titration in water; read-out: pKa' (first value)
  pKa: 6.9
Titration in water; read-out: pKa' (second value)
  pKa: 9.4
In vivo; iv
  LD50: 2500 mg/kg
In vivo; sc
  LD50 at 360 h: 1000 mg/kg
